Measurements published in EPA's ToxRefDB 2.

Legend:
mouse [1] = conditions: Carcinogenicity, other, Oral, Feed, dose end: 2 year, group: systemic
rat [2] = conditions: Combined chronic toxicity/carcinogenicity, fischer, Oral, Feed, dose end: 105 week, group: systemic
rat [3] = conditions: Combined chronic toxicity/carcinogenicity; fischer; Oral; Feed; dose end: 2 year; group: systemic; systemic / in life observation / body weight / body weight + systemic / in life observation / body weight / body weight gain
rat [4] = conditions: Multigenerational reproductive toxicity study, fischer, Oral, Feed, dose end: 3 generation
rat [5] = conditions: Prenatal developmental toxicity study, fischer, Oral, Gavage/Intubation, dose end: 15 GD
mouse [6] = conditions: Carcinogenicity; b6c3f1; Oral; Feed; dose end: 2 year; group: systemic; systemic / in life observation / body weight / body weight
mouse [7] = conditions: Subchronic oral toxicity in rodents, b6c3f1, Feed, dose end: 13 week, group: systemic, systemic / in life observation / body weight / body weight gain
rabbit = conditions: Prenatal developmental toxicity study, new zealand white, Oral, Gavage/Intubation, dose end: 28 GD
rat [8] = conditions: Subchronic oral toxicity in rodents, fischer, Feed, dose end: 13 week, group: systemic
rat [9] = conditions: Carcinogenicity, fischer, Oral, Gavage/Intubation, dose end: 103 week, group: systemic
rat [10] = conditions: Subchronic oral toxicity in rodents, fischer, Gavage/Intubation, dose end: 13 week, group: systemic
mouse [11] = conditions: Subchronic oral toxicity in rodents, b6c3f1, Gavage/Intubation, dose end: 13 week, group: systemic
rat [12] = conditions: Multigenerational reproductive toxicity study, sprague dawley, Oral, Feed, dose end: 2 generation
dog = conditions: Multigenerational reproductive toxicity study; beagle; Oral; Feed; dose end: 3 generation; group: reproductive; reproductive / reproductive performance / estrous cycle / abnormal
rat [13] = conditions: Multigenerational reproductive toxicity study, sprague dawley, Oral, Feed, dose end: 2 generation; remark: listed apart in the source
rat [14] = conditions: Carcinogenicity, other, Oral, Feed, dose end: 78 week, group: systemic
mouse [15] = conditions: Subchronic oral toxicity in rodents, b6c3f1, Feed, dose end: 6 week, group: systemic
mouse [16] = conditions: Multigenerational reproductive toxicity study, other, Oral, Feed, dose end: 5 generation
rat [17] = conditions: Subchronic oral toxicity in rodents, other, Feed, dose end: 6 week, group: systemic, systemic / in life observation / body weight / body weight
mouse [18] = conditions: Carcinogenicity; b6c3f1; Oral; Feed; dose end: 78 week; group: systemic; systemic / in life observation / mortality / mortality
[19] = systemic / clinical chemistry / alkaline phosphatase (alp/alk) / alkaline phosphatase (alp/alk) + systemic / clinical chemistry / chloride…
[20] = systemic / clinical chemistry / chloride / chloride + systemic / clinical chemistry / potassium / potassium + systemic / clinical chemistry…
[21] = systemic / in life observation / body weight / body weight + systemic / organ weight / kidney / relative to body weight + systemic / …
[22] = group: offspring, systemic / in life observation / body weight / offspring (pup) weight
[23] = group: offspring, systemic / in life observation / body weight / offspring (pup) weight + systemic / organ weight / kidney / absolute
[24] = group: parental, systemic / in life observation / body weight / body weight + systemic / pathology microscopic / kidney / casts + systemic / pathology …
[25] = group: developmental, developmental / developmental malformation / general / crown-rump length + developmental / offspring survival late / viability index / …
[26] = group: maternal, systemic / in life observation / clinical signs / blood around eyes and nose + systemic / in life observation / clinical signs / emaciation…
[27] = group: developmental, systemic / in life observation / body weight / fetal weight
[28] = group: maternal, systemic / in life observation / body weight / body weight gain + systemic / in life observation / clinical signs / alopecia + systemic / in…
[29] = systemic / in life observation / body weight / body weight gain
[30] = systemic / in life observation / body weight / body weight
[31] = systemic / in life observation / body weight / body weight + systemic / pathology microscopic / liver / neoplastic nodule + systemic / in …
[32] = systemic / clinical chemistry / alkaline phosphatase (alp/alk) / alkaline phosphatase (alp/alk) + systemic / clinical chemistry / gamma …
[33] = systemic / organ weight / spleen / absolute + systemic / organ weight / spleen / relative to body weight
[34] = systemic / in life observation / body weight / body weight + systemic / in life observation / mortality / mortality + systemic / organ …
[35] = systemic / organ weight / heart / absolute + systemic / organ weight / heart / relative to body weight
[36] = group: offspring, systemic / in life observation / clinical signs / [other]
[37] = group: parental, systemic / organ weight / liver / relative to body weight
[38] = group: offspring, developmental / offspring survival late / viability index / viability index + developmental / developmental landmark / preputial separation…
[39] = group: parental, systemic / organ weight / adrenal gland / relative to body weight + systemic / organ weight / kidney / relative to body weight + systemic / …
[40] = systemic / in life observation / clinical signs / abdominogenital staining + systemic / in life observation / clinical signs / hunched …
[41] = systemic / in life observation / body weight / body weight gain + systemic / in life observation / mortality / mortality
[42] = group: offspring, systemic / pathology microscopic / blood / leukemia + systemic / pathology microscopic / blood vessel / [other] + systemic / pathology …
[43] = group: parental, systemic / pathology microscopic / blood vessel / [other] + systemic / pathology microscopic / lung / carcinoma + systemic / hematology / …

c1ccc(-c2ccccc2)cc1 [Biphenyl]
LOAEL (mouse [1]; [19]): > 1050 mg/kg/day | NOAEL (mouse [1]; [19]): ≥ 1050 mg/kg/day | LEL (mouse [1]; [20]): 97 mg/kg/day | NEL (mouse [1]; [20]): < 97 mg/kg/day | LOAEL (rat [2]; [21]): > 225 mg/kg/day | NEL (rat [2]; [21]): 25 mg/kg/day | NOAEL (rat [2]; [21]): ≥ 225 mg/kg/day | LEL (rat [2]; systemic / organ weight / kidney / relative to body weight): 75 mg/kg/day

O=C1CCCCCN1 [Caprolactam]
LEL (rat [3]): 188 mg/kg/day | LOAEL (rat [3]): 188 mg/kg/day | NEL (rat [3]): < 188 mg/kg/day | NOAEL (rat [3]): < 188 mg/kg/day | LEL (rat [4]; [22]): 250 mg/kg/day | NEL (rat [4]; [22]): 50 mg/kg/day | LOAEL (rat [4]; [23]): > 500 mg/kg/day | NOAEL (rat [4]; [23]): ≥ 500 mg/kg/day | NEL (rat [4]; group: parental, systemic / in life observation / body weight / body weight): 250 mg/kg/day | LEL (rat [4]; [24]): 500 mg/kg/day | LOAEL (rat [4]; [24]): > 500 mg/kg/day | NOAEL (rat [4]; [24]): ≥ 500 mg/kg/day | LEL (rat [5]; [25]): 1000 mg/kg/day | LOAEL (rat [5]; [25]): > 1000 mg/kg/day | NEL (rat [5]; [25]): 500 mg/kg/day | NOAEL (rat [5]; [25]): ≥ 1000 mg/kg/day | LEL (rat [5]; [26]): 100 mg/kg/day | LOAEL (rat [5]; [26]): > 1000 mg/kg/day | NEL (rat [5]; [26]): < 100 mg/kg/day | NOAEL (rat [5]; [26]): ≥ 1000 mg/kg/day | LEL (mouse [6]): 1120 mg/kg/day | LOAEL (mouse [6]): 1120 mg/kg/day | NEL (mouse [6]): < 1120 mg/kg/day | NOAEL (mouse [6]): < 1120 mg/kg/day | LEL (mouse [7]): 750 mg/kg/day | LOAEL (mouse [7]): 750 mg/kg/day | NEL (mouse [7]): < 750 mg/kg/day | NOAEL (mouse [7]): < 750 mg/kg/day | LEL (rabbit; [27]): 150 mg/kg/day | LOAEL (rabbit; [27]): > 250 mg/kg/day | NEL (rabbit; [27]): 50 mg/kg/day | NOAEL (rabbit; [27]): ≥ 250 mg/kg/day | LEL (rabbit; group: maternal, systemic / in life observation / body weight / body weight gain): 150 mg/kg/day | LOAEL (rabbit; [28]): > 250 mg/kg/day | NEL (rabbit; [28]): 50 mg/kg/day | NOAEL (rabbit; [28]): ≥ 250 mg/kg/day | LEL (rat [8]; [29]): 31 mg/kg/day | LOAEL (rat [8]; [29]): 125 mg/kg/day | NEL (rat [8]; [29]): < 31 mg/kg/day | NOAEL (rat [8]; systemic / in life observation / body weight / body weight gain + systemic / in life observation / food consumption / food consumption): 63 mg/kg/day

Clc1ccccc1 [Chlorobenzene]
LEL (rat [9]; [30]): 60 mg/kg/day | NEL (rat [9]; [30]): < 60 mg/kg/day | LOAEL (rat [9]; [31]): > 120 mg/kg/day | NOAEL (rat [9]; [31]): ≥ 120 mg/kg/day | LOAEL (rat [10]; [32]): > 750 mg/kg/day | NOAEL (rat [10]; [32]): ≥ 750 mg/kg/day | LEL (rat [10]; [33]): 60 mg/kg/day | NEL (rat [10]; [33]): < 60 mg/kg/day | LOAEL (mouse [11]; [34]): > 750 mg/kg/day | NOAEL (mouse [11]; [34]): ≥ 750 mg/kg/day | LEL (mouse [11]; [35]): 60 mg/kg/day | NEL (mouse [11]; [35]): < 60 mg/kg/day

Clc1ccc(C(c2ccc(Cl)cc2)C(Cl)(Cl)Cl)cc1 [p,p'-DDT]
LEL (rat [12]; [36]): 10 mg/kg/day | LOAEL (rat [12]; [36]): > 10 mg/kg/day | NEL (rat [12]; [36]): 1 mg/kg/day | NOAEL (rat [12]; [36]): ≥ 10 mg/kg/day | LEL (rat [12]; [37]): 10 mg/kg/day | LOAEL (rat [12]; [37]): > 10 mg/kg/day | NEL (rat [12]; [37]): 1 mg/kg/day | NOAEL (rat [12]; [37]): ≥ 10 mg/kg/day | LEL (dog): 1 mg/kg/day | LOAEL (dog): > 10 mg/kg/day | NEL (dog): < 1 mg/kg/day | NOAEL (dog): ≥ 10 mg/kg/day | LEL (rat [13]; [38]): 25 mg/kg/day | LOAEL (rat [13]; [38]): > 25 mg/kg/day | NEL (rat [13]; [38]): 3.44 mg/kg/day | NOAEL (rat [13]; [38]): ≥ 25 mg/kg/day | LOAEL (rat [13]; [39]): > 25 mg/kg/day | NEL (rat [13]; [39]): 0.343 mg/kg/day | NOAEL (rat [13]; [39]): ≥ 25 mg/kg/day | LEL (rat [13]; group: parental, systemic / organ weight / liver / absolute + systemic / organ weight / liver / relative to body weight + systemic / pathology microscopic / …): 3.44 mg/kg/day | LOAEL (rat [14]; [30]): 21 mg/kg/day | NOAEL (rat [14]; systemic / in life observation / body weight / body weight + systemic / in life observation / clinical signs / abdominogenital staining + …): 10.5 mg/kg/day | LEL (rat [14]; [40]): 10.5 mg/kg/day | NEL (rat [14]; [40]): < 10.5 mg/kg/day | LEL (mouse [15]; [29]): 2.7 mg/kg/day | NEL (mouse [15]; [29]): < 2.7 mg/kg/day | LOAEL (mouse [15]; [41]): > 26.7 mg/kg/day | NOAEL (mouse [15]; [41]): ≥ 26.7 mg/kg/day | LEL (mouse [16]; [42]): 0.55 mg/kg/day | LOAEL (mouse [16]; [42]): > 0.55 mg/kg/day | NEL (mouse [16]; [42]): < 0.55 mg/kg/day | NOAEL (mouse [16]; [42]): ≥ 0.55 mg/kg/day | LEL (mouse [16]; [43]): 0.55 mg/kg/day | LOAEL (mouse [16]; [43]): > 0.55 mg/kg/day | NEL (mouse [16]; [43]): < 0.55 mg/kg/day | NOAEL (mouse [16]; [43]): ≥ 0.55 mg/kg/day | LEL (rat [17]): 28.1 mg/kg/day | LOAEL (rat [17]): 28.1 mg/kg/day | NEL (rat [17]): 15.8 mg/kg/day | NOAEL (rat [17]): 15.8 mg/kg/day | LEL (mouse [18]): 26.2 mg/kg/day | LOAEL (mouse [18]): > 26.2 mg/kg/day | NEL (mouse [18]): 13.1 mg/kg/day | NOAEL (mouse [18]): ≥ 26.2 mg/kg/day
